From the OligoGym collection
Oligonucleotides are given in HELM: sugar(base)linkage, 5' to 3'; d 2'-deoxyribose, r ribose, m 2'-O-methylribose, p phosphate. ss, as = sense and antisense strand
Note: test concentration or dose not given here.

Each substance was assayed against Cacnb1 (rat) (assay: reporter assay of Huesken 2005). Settings: siRNA.
“RNA1{r(C)p.r(C)p.r(U)p.r(U)p.r(A)p.r(G)p.r(C)p.r(C)p.r(C)p.r(A)p.r(G)p.r(C)p.r(U)p.r(C)p.r(G)p.r(A)p.r(G)p.r(A)p.r(A)p.d(T)p.d(T)}|RNA2{r(U)p.r(U)p.r(C)p.r(U)p.r(C)p.r(G)p.r(A)p.r(G)p.r(C)p.r(U)p.r(G)p.r(G)p.r(G)p.r(C)p.r(U)p.r(A)p.r(A)p.r(G)p.r(G)p.d(C)p.d(C)}$$$RNA1{StrandType:ss}|RNA2{StrandType:as}$” showed a normalised inhibition (eCFP-eYFP dual reporter) of 76.8%.
“RNA1{r(C)p.r(G)p.r(A)p.r(A)p.r(A)p.r(C)p.r(U)p.r(C)p.r(U)p.r(G)p.r(U)p.r(C)p.r(U)p.r(A)p.r(C)p.r(A)p.r(C)p.r(G)p.r(G)p.d(T)p.d(T)}|RNA2{r(C)p.r(C)p.r(G)p.r(U)p.r(G)p.r(U)p.r(A)p.r(G)p.r(A)p.r(C)p.r(A)p.r(G)p.r(A)p.r(G)p.r(U)p.r(U)p.r(U)p.r(C)p.r(G)p.d(G)p.d(C)}$$$RNA1{StrandType:ss}|RNA2{StrandType:as}$” gave a normalised inhibition (eCFP-eYFP dual reporter) of 44%.
Substance “RNA1{r(C)p.r(G)p.r(A)p.r(G)p.r(C)p.r(G)p.r(C)p.r(U)p.r(C)p.r(C)p.r(A)p.r(A)p.r(C)p.r(A)p.r(C)p.r(U)p.r(C)p.r(G)p.r(C)p.d(T)p.d(T)}|RNA2{r(G)p.r(C)p.r(G)p.r(A)p.r(G)p.r(U)p.r(G)p.r(U)p.r(U)p.r(G)p.r(G)p.r(A)p.r(G)p.r(C)p.r(G)p.r(C)p.r(U)p.r(C)p.r(G)p.d(A)p.d(T)}$$$RNA1{StrandType:ss}|RNA2{StrandType:as}$” has a normalised inhibition (eCFP-eYFP dual reporter) of 15.2%.
For “RNA1{r(C)p.r(G)p.r(U)p.r(C)p.r(A)p.r(G)p.r(A)p.r(C)p.r(U)p.r(C)p.r(C)p.r(G)p.r(A)p.r(C)p.r(G)p.r(U)p.r(G)p.r(U)p.r(C)p.d(T)p.d(T)}|RNA2{r(G)p.r(A)p.r(C)p.r(A)p.r(C)p.r(G)p.r(U)p.r(C)p.r(G)p.r(G)p.r(A)p.r(G)p.r(U)p.r(C)p.r(U)p.r(G)p.r(A)p.r(C)p.r(G)p.d(G)p.d(C)}$$$RNA1{StrandType:ss}|RNA2{StrandType:as}$”, the normalised inhibition (eCFP-eYFP dual reporter) was 77%.
With “RNA1{r(C)p.r(U)p.r(A)p.r(U)p.r(C)p.r(C)p.r(C)p.r(G)p.r(C)p.r(C)p.r(A)p.r(A)p.r(G)p.r(A)p.r(C)p.r(A)p.r(C)p.r(C)p.r(U)p.d(T)p.d(T)}|RNA2{r(A)p.r(G)p.r(G)p.r(U)p.r(G)p.r(U)p.r(C)p.r(U)p.r(U)p.r(G)p.r(G)p.r(C)p.r(G)p.r(G)p.r(G)p.r(A)p.r(U)p.r(A)p.r(G)p.d(C)p.d(G)}$$$RNA1{StrandType:ss}|RNA2{StrandType:as}$” the normalised inhibition (eCFP-eYFP dual reporter) was 70.7%.
“RNA1{r(C)p.r(U)p.r(G)p.r(A)p.r(G)p.r(G)p.r(U)p.r(A)p.r(C)p.r(A)p.r(G)p.r(A)p.r(G)p.r(U)p.r(G)p.r(A)p.r(A)p.r(A)p.r(U)p.d(T)p.d(T)}|RNA2{r(A)p.r(U)p.r(U)p.r(U)p.r(C)p.r(A)p.r(C)p.r(U)p.r(C)p.r(U)p.r(G)p.r(U)p.r(A)p.r(C)p.r(C)p.r(U)p.r(C)p.r(A)p.r(G)p.d(C)p.d(C)}$$$RNA1{StrandType:ss}|RNA2{StrandType:as}$” gave a normalised inhibition (eCFP-eYFP dual reporter) of 59.1%.
In the case of “RNA1{r(C)p.r(U)p.r(G)p.r(G)p.r(C)p.r(U)p.r(G)p.r(A)p.r(G)p.r(G)p.r(U)p.r(A)p.r(C)p.r(A)p.r(G)p.r(A)p.r(G)p.r(U)p.r(G)p.d(T)p.d(T)}|RNA2{r(C)p.r(A)p.r(C)p.r(U)p.r(C)p.r(U)p.r(G)p.r(U)p.r(A)p.r(C)p.r(C)p.r(U)p.r(C)p.r(A)p.r(G)p.r(C)p.r(C)p.r(A)p.r(G)p.d(G)p.d(C)}$$$RNA1{StrandType:ss}|RNA2{StrandType:as}$”, the normalised inhibition (eCFP-eYFP dual reporter) is reported as 34.8%.
“RNA1{r(C)p.r(U)p.r(G)p.r(G)p.r(U)p.r(G)p.r(G)p.r(A)p.r(U)p.r(C)p.r(G)p.r(G)p.r(G)p.r(A)p.r(G)p.r(G)p.r(C)p.r(U)p.r(G)p.d(T)p.d(T)}|RNA2{r(C)p.r(A)p.r(G)p.r(C)p.r(C)p.r(U)p.r(C)p.r(C)p.r(C)p.r(G)p.r(A)p.r(U)p.r(C)p.r(C)p.r(A)p.r(C)p.r(C)p.r(A)p.r(G)p.d(T)p.d(C)}$$$RNA1{StrandType:ss}|RNA2{StrandType:as}$” gave a normalised inhibition (eCFP-eYFP dual reporter) of 40.7%.
“RNA1{r(C)p.r(U)p.r(U)p.r(G)p.r(G)p.r(A)p.r(A)p.r(G)p.r(C)p.r(C)p.r(U)p.r(A)p.r(C)p.r(U)p.r(G)p.r(G)p.r(A)p.r(A)p.r(G)p.d(T)p.d(T)}|RNA2{r(C)p.r(U)p.r(U)p.r(C)p.r(C)p.r(A)p.r(G)p.r(U)p.r(A)p.r(G)p.r(G)p.r(C)p.r(U)p.r(U)p.r(C)p.r(C)p.r(A)p.r(A)p.r(G)p.d(T)p.d(A)}$$$RNA1{StrandType:ss}|RNA2{StrandType:as}$” showed a normalised inhibition (eCFP-eYFP dual reporter) of 60.9%.
Work on “RNA1{r(G)p.r(A)p.r(A)p.r(C)p.r(C)p.r(G)p.r(C)p.r(A)p.r(C)p.r(C)p.r(A)p.r(U)p.r(G)p.r(G)p.r(C)p.r(U)p.r(A)p.r(C)p.r(C)p.d(T)p.d(T)}|RNA2{r(G)p.r(G)p.r(U)p.r(A)p.r(G)p.r(C)p.r(C)p.r(A)p.r(U)p.r(G)p.r(G)p.r(U)p.r(G)p.r(C)p.r(G)p.r(G)p.r(U)p.r(U)p.r(C)p.d(A)p.d(G)}$$$RNA1{StrandType:ss}|RNA2{StrandType:as}$” yielded a normalised inhibition (eCFP-eYFP dual reporter) of 49%.
Substance “RNA1{r(G)p.r(A)p.r(G)p.r(A)p.r(U)p.r(C)p.r(C)p.r(C)p.r(U)p.r(A)p.r(U)p.r(G)p.r(G)p.r(A)p.r(G)p.r(G)p.r(U)p.r(C)p.r(U)p.d(T)p.d(T)}|RNA2{r(A)p.r(G)p.r(A)p.r(C)p.r(C)p.r(U)p.r(C)p.r(C)p.r(A)p.r(U)p.r(A)p.r(G)p.r(G)p.r(G)p.r(A)p.r(U)p.r(C)p.r(U)p.r(C)p.d(T)p.d(T)}$$$RNA1{StrandType:ss}|RNA2{StrandType:as}$” has a normalised inhibition (eCFP-eYFP dual reporter) of 71.5%.
In the case of “RNA1{r(G)p.r(A)p.r(G)p.r(U)p.r(G)p.r(A)p.r(A)p.r(A)p.r(U)p.r(C)p.r(G)p.r(A)p.r(G)p.r(C)p.r(G)p.r(G)p.r(A)p.r(U)p.r(C)p.d(T)p.d(T)}|RNA2{r(G)p.r(A)p.r(U)p.r(C)p.r(C)p.r(G)p.r(C)p.r(U)p.r(C)p.r(G)p.r(A)p.r(U)p.r(U)p.r(U)p.r(C)p.r(A)p.r(C)p.r(U)p.r(C)p.d(T)p.d(G)}$$$RNA1{StrandType:ss}|RNA2{StrandType:as}$”, the normalised inhibition (eCFP-eYFP dual reporter) is reported as 84.9%.
For “RNA1{r(G)p.r(C)p.r(A)p.r(G)p.r(A)p.r(G)p.r(U)p.r(C)p.r(C)p.r(U)p.r(A)p.r(C)p.r(A)p.r(C)p.r(G)p.r(A)p.r(G)p.r(C)p.r(C)p.d(T)p.d(T)}|RNA2{r(G)p.r(G)p.r(C)p.r(U)p.r(C)p.r(G)p.r(U)p.r(G)p.r(U)p.r(A)p.r(G)p.r(G)p.r(A)p.r(C)p.r(U)p.r(C)p.r(U)p.r(G)p.r(C)p.d(T)p.d(G)}$$$RNA1{StrandType:ss}|RNA2{StrandType:as}$”, the normalised inhibition (eCFP-eYFP dual reporter) was 79.4%.
“RNA1{r(G)p.r(C)p.r(C)p.r(A)p.r(A)p.r(A)p.r(A)p.r(C)p.r(C)p.r(G)p.r(C)p.r(C)p.r(U)p.r(C)p.r(A)p.r(G)p.r(C)p.r(U)p.r(C)p.d(T)p.d(T)}|RNA2{r(G)p.r(A)p.r(G)p.r(C)p.r(U)p.r(G)p.r(A)p.r(G)p.r(G)p.r(C)p.r(G)p.r(G)p.r(U)p.r(U)p.r(U)p.r(U)p.r(G)p.r(G)p.r(C)p.d(G)p.d(C)}$$$RNA1{StrandType:ss}|RNA2{StrandType:as}$” was tested, and the normalised inhibition (eCFP-eYFP dual reporter) was 54.1%.
Substance “RNA1{r(G)p.r(C)p.r(C)p.r(C)p.r(A)p.r(C)p.r(A)p.r(G)p.r(G)p.r(G)p.r(C)p.r(A)p.r(A)p.r(A)p.r(U)p.r(A)p.r(C)p.r(A)p.r(G)p.d(T)p.d(T)}|RNA2{r(C)p.r(U)p.r(G)p.r(U)p.r(A)p.r(U)p.r(U)p.r(U)p.r(G)p.r(C)p.r(C)p.r(C)p.r(U)p.r(G)p.r(U)p.r(G)p.r(G)p.r(G)p.r(C)p.d(T)p.d(G)}$$$RNA1{StrandType:ss}|RNA2{StrandType:as}$” has a normalised inhibition (eCFP-eYFP dual reporter) of 75.8%.
Substance “RNA1{r(G)p.r(G)p.r(C)p.r(C)p.r(G)p.r(G)p.r(U)p.r(U)p.r(C)p.r(U)p.r(G)p.r(G)p.r(G)p.r(G)p.r(C)p.r(G)p.r(C)p.r(A)p.r(A)p.d(T)p.d(T)}|RNA2{r(U)p.r(U)p.r(G)p.r(C)p.r(G)p.r(C)p.r(C)p.r(C)p.r(C)p.r(A)p.r(G)p.r(A)p.r(A)p.r(C)p.r(C)p.r(G)p.r(G)p.r(C)p.r(C)p.d(C)p.d(A)}$$$RNA1{StrandType:ss}|RNA2{StrandType:as}$” has a normalised inhibition (eCFP-eYFP dual reporter) of 79.6%.
In the case of “RNA1{r(G)p.r(G)p.r(C)p.r(U)p.r(C)p.r(C)p.r(U)p.r(G)p.r(G)p.r(G)p.r(A)p.r(A)p.r(G)p.r(A)p.r(G)p.r(G)p.r(A)p.r(G)p.r(G)p.d(T)p.d(T)}|RNA2{r(C)p.r(C)p.r(U)p.r(C)p.r(C)p.r(U)p.r(C)p.r(U)p.r(U)p.r(C)p.r(C)p.r(C)p.r(A)p.r(G)p.r(G)p.r(A)p.r(G)p.r(C)p.r(C)p.d(C)p.d(T)}$$$RNA1{StrandType:ss}|RNA2{StrandType:as}$”, the normalised inhibition (eCFP-eYFP dual reporter) is reported as 46.7%.
“RNA1{r(G)p.r(G)p.r(G)p.r(G)p.r(A)p.r(G)p.r(C)p.r(U)p.r(G)p.r(G)p.r(G)p.r(C)p.r(C)p.r(A)p.r(G)p.r(C)p.r(C)p.r(C)p.r(C)p.d(T)p.d(T)}|RNA2{r(G)p.r(G)p.r(G)p.r(G)p.r(C)p.r(U)p.r(G)p.r(G)p.r(C)p.r(C)p.r(C)p.r(A)p.r(G)p.r(C)p.r(U)p.r(C)p.r(C)p.r(C)p.r(C)p.d(G)p.d(G)}$$$RNA1{StrandType:ss}|RNA2{StrandType:as}$” gave a normalised inhibition (eCFP-eYFP dual reporter) of 19.2%.
Substance “RNA1{r(G)p.r(U)p.r(A)p.r(C)p.r(U)p.r(G)p.r(C)p.r(A)p.r(G)p.r(A)p.r(G)p.r(G)p.r(C)p.r(U)p.r(C)p.r(A)p.r(U)p.r(C)p.r(A)p.d(T)p.d(T)}|RNA2{r(U)p.r(G)p.r(A)p.r(U)p.r(G)p.r(A)p.r(G)p.r(C)p.r(C)p.r(U)p.r(C)p.r(U)p.r(G)p.r(C)p.r(A)p.r(G)p.r(U)p.r(A)p.r(C)p.d(C)p.d(T)}$$$RNA1{StrandType:ss}|RNA2{StrandType:as}$” has a normalised inhibition (eCFP-eYFP dual reporter) of 73.6%.
“RNA1{r(G)p.r(U)p.r(G)p.r(C)p.r(C)p.r(A)p.r(A)p.r(A)p.r(C)p.r(A)p.r(G)p.r(A)p.r(A)p.r(G)p.r(C)p.r(A)p.r(G)p.r(A)p.r(A)p.d(T)p.d(T)}|RNA2{r(U)p.r(U)p.r(C)p.r(U)p.r(G)p.r(C)p.r(U)p.r(U)p.r(C)p.r(U)p.r(G)p.r(U)p.r(U)p.r(U)p.r(G)p.r(G)p.r(C)p.r(A)p.r(C)p.d(T)p.d(G)}$$$RNA1{StrandType:ss}|RNA2{StrandType:as}$” was tested, and the normalised inhibition (eCFP-eYFP dual reporter) was 82.1%.
